Source: patent publication US20220009976A1, “Peptide Possessing Mesenchymal-Stem-Cell Mobilizing Activity” (StemRIM Inc., priority 2018, published 2022)

Tests used:
[1] = tested on: atopic dermatitis model mice; experiment: Efficacy in MC903-induced atopic dermatitis (AD) model mice; format: in vivo, C57BL/6 mice
Description: MC903 (generic name: Calcipotriol) was used to induce atopic dermatitis (hereinafter, also referred to as “AD”) in mice. In addition, the peptide 1r10 (TFA salt) described in Example 1 was used as the test substance.
C57BL/6 mice (C57BL/6JJcl, 7-8 weeks old, male, microbial grade SPF) were obtained from Japan Claire Co., Ltd., acclimated in the animal breeding room for 5 days or more, and then subjected to the following experiments. An ethanol-adjusted MC903 solution was applied to the skin of the auricle of the mice at a dose of 2.25 nmol MC903/ear/once/day five times a week for 2 weeks (ten times in total) to induce atopic dermatitis (AD). This MC903-induced AD model is a model in which AD-like pathology can be reproduced in a short period of time (1-2 weeks) by artificially inducing the secretion of TSLP from epithelial cells, which is actually seen in AD patients, thereby eliciting a series of type 2 immune response cascades (Li M et al., Proc Natl Acad Sci USA. 2006; 103:11736-41).
They were then divided into the control group and the peptide administration group (n=7 in each group), while the groups were equalized based on the auricle thickness in consideration of the difference in the severity of inflammation between individuals. For peptide administration, the solution of peptide 1r10 adjusted to 0.3 mg/mL with physiological saline was injected into the tail vein at a volume of 5 mL/kg (peptide dose of 1.5 mg/kg) twice in total, once on the grouping day (Day 15) and once during the following 4 days (Day 16 to Day 19). For the control group a solution of bovine serum albumin (BSA) adjusted to 0.3 mg/mL with physiological saline was injected into the tail vein at a volume of 5 mL/kg (BSA dose of 1.5 mg/kg) twice in total, once on the grouping day (Day 15) and once during the following 4 days (Day 16 to Day 19).
During the peptide administration period (Day 15 to Day 19), ear swellings were measured daily to determine edema. Scaling, which is the main symptom of AD, was determined by photography (three times a week) using a digital camera (E-M1 II; Olympus) from a fixed base at a height of 13-14 cm from the auricle.
On the 4th day (Day 19) after the start of peptide administration, mice were placed under the influence of isoflurane anesthesia and euthanized with cervical spine dislocation. The skin at auricular inflammation site and its surroundings was quickly excised and collected while on ice to prevent protein denaturation of the sample. After removing excess hair and skin with tweezers, the collected auricular skin was immersed in 10% formalin and fixed at 4° C. overnight while shaking on ice using a shaker. After fixation, the skin was thoroughly washed with phosphate buffered saline (PBS) and trimmed, and then a paraffin block was made using an automatic embedding device (Excelsior ES; Thermo Scientific) with attention to the tissue polarity in the dorsoventral axis/left-right axis specific to the skin). Then, it was sliced (5 μm thick) with a rotary microtome (HM 325; Thermo Scientific), fixed on a slide glass, and subjected to various staining. As pathological analysis, skin thickness and infiltration of immune cells were evaluated by histochemical staining and fluorescent immunostaining, respectively.
To quantitatively evaluate the healing condition of the site of inflammation, hematoxylin-eosin (HE) staining of the paraffin thin sections (5 μm thick) of skin tissue generated as described above was performed to measure the dermal thickness. Specifically, three sections were prepared for each individual, and each section was photographed with a microscope (Keyence BZ-X710) at one site each of the center of inflammation, head side, and tail side (that is, a total of 9 sites were photographed per individual). […]

[2] = tested on: mesenchymal stem cells; experiment: Colony assay of peripheral blood collected after peptide administration (mobilization of mesenchymal stem cells into peripheral blood); format: in vivo, C57BL/6J mice; conditions: 4 mg/kg tail vein; blood collected 14 hours after administration; 10 days culture; colonies of 50 or more cells; vs physiological saline
Experimental: C57BL/6J mice (8 weeks old, male, body weight 25 g) were prepared and divided into a group administered with the artificial sequence peptide […] and a control group. The peptide was administered by injecting into the tail vein, a solution of peptide 1r10 adjusted to a concentration of […] using physiological saline as a solvent in an amount of 100 μL/animal (4 mg/kg dose of peptide). For the control group, physiological saline was injected into the tail vein in an amount of 100 μL/animal. […]
The supernatant (sample containing peripheral blood-derived cells) obtained by the above procedure was seeded on collagen I-coated 6-well plates (Corning, Cat No. 356400), and cultured for 10 days under the conditions of 37° C., 5% CO2 and 5% O2, using a medium containing Expansion Medium prepared using the MesenCult Expansion Kit (STEMCELL Technologies, Cat No. ST-05513) according to the manual of the kit, 1% L-glutamine (Nacalai Tesque Inc.), 10 μM ROCK inhibitor (Y27632, Tocris Bioscience) and 1% penicillin/streptomycin (Nacalai Tesque Inc.) (all numerical values are final concentrations). […] On the 10th day of culture, cells on the plates were stained with a Differential Quik Stain Kit (Sysmex Corporation, Cat No. 16920), and the number of colonies containing 50 or more cells was counted. […]

[3] = tested on: cerebral infarction model rat; experiment: Efficacy in cerebral infarction model rat (right MCA occlusion); format: in vivo, Crl:CD (SD) rats; conditions: 2 mg/kg tail vein at 105 minutes and 24 hours after right MCA occlusion; 48 hours after occlusion; p<0.01 vs control 34.1±1.1%
Description: Crl:CD (SD) rats (7 weeks old, male) were obtained from Charles River Laboratories, Japan, and after 6 days of acclimation, they were divided into the control group (n=8) and the peptide-administered group (n=8). On the following day of grouping, the rats were fixed in the supine position under 2% isoflurane inhalation anesthesia (anesthesia background: laughing gas:oxygen=7:3). To regulate body temperature during surgery, a thermometer probe connected to a digital thermometer was inserted into the rectum, and changes in the rectal temperature before and after surgery were monitored. […]
Forty-eight hours after the right MCA occlusion, the animals were decapitated under anesthesia with sodium pentobarbital (50 mg/kg, intraperitoneal administration), and the entire brain was excised to prepare brain sections with a thickness of 2 mm. […] The resulting photographs were subjected to image analysis to obtain actual measurements of the cerebral infarction area and cross-sectional area of the brain, and the cerebral infarct volume and the total brain volume from 4 mm anterior to bregma to 6 mm posterior to bregma were calculated using the calculation formula below. In addition, the cerebral infarction volume ratio was calculated from the cerebral infarction volume and the total volume of the brain (cerebral infarction volume ratio (%)=cerebral infarction volume/total brain volume×100).

[4] = tested on: inflammatory bowel disease (IBD) model mice; experiment: Efficacy in DSS-induced inflammatory bowel disease (IBD) model mice; format: in vivo, BALB/c mice
Experimental: Dextran sodium sulfate (DSS) (molecular weight 36,000 to 50,000, manufactured by MP Biomedicals, Product No. 160110) was dissolved in purified water to prepare a 2.5% (w/v) DSS aqueous solution. In addition, the peptide 1r10 (TFA salt) described in Example 1 was used as the test substance.
BALB/c mice (9 weeks old, male) were allowed to drink the 2.5% DSS aqueous solution freely for 7 days to induce colitis. After that, the drinking was changed from DSS to tap water, and the large intestine was collected 3 days later (10 days after the start of drinking the DSS aqueous solution).
The IBD model mice prepared as described above were divided into the peptide 1r10 administration group (n=8) and the control group (n=8). Peptide administration was carried out by injecting into the tail vein, the peptide 1r10 solution adjusted to a concentration of 0.5 mg/mL using physiological saline as a solvent at an amount of 10 mL/kg on Days 1, 4, 7, 8 and 9 after the start of drinking the DSS aqueous solution (peptide dose of 5 mg/kg). The control group was injected with physiological saline solution at a dose of 10 mL/kg into the tail vein on Days 1, 4, 7, 8 and 9 after the start of drinking the DSS aqueous solution.
For 10 days from the start of drinking the DSS aqueous solution, the mice were weighed and observed for the symptoms (stool condition and bleeding) every day except Saturdays, Sundays, and holidays, and the degree of symptoms was evaluated by calculating the DAI (disease activity index) score. The DAI score was calculated by scoring the weight loss rate, stool condition, and stool bleeding as shown in the table below, and summing the scores of these three items. The scoring criteria were partly based on the method of Li et al. (PLoS One. 2015 Dec. 7; 10 (12): e0144101).
In addition, the length of the large intestine (from the colon to the rectum) collected 10 days after the start of drinking DSS was measured using a digital caliper.

[5] = tested on: mesenchymal stem cells; experiment: Solid-phase culture of peripheral blood after administration of HMGB1 peptide 1-44 (earlier experiments of the inventors); format: in vivo; conditions: vs peripheral blood after administration of physiological saline
Description: In addition, the colonies obtained as a result of culturing, on a solid phase, peripheral blood after administration of a peptide consisting of amino acid residues 1-44 of the human HMGB1 protein (hereinafter, HMGB1 peptide 1-44), which has an activity of mobilizing mesenchymal stem cells into peripheral blood, have been confirmed to have adherability to solid phase and self-renewal ability, and to be PDGFRα positive. They have also been confirmed to have a gene expression profile characteristic to mesenchymal stem cells, based on the results of clustering the transcriptome analysis data and performing gene ontology analysis.
Furthermore, it has been confirmed that the number of colonies obtained by solid-phase culture is larger in the peripheral blood after administration of HMGB1 peptide 1-44 than in the peripheral blood after administration of physiological saline.
Therefore, the colonies obtained as a result of culturing peripheral blood on a solid phase are mesenchymal stem cells, and it is considered that an increase in the number of colonies detected in a solid phase culture of peripheral blood indicates an increase in the number of mesenchymal stem cells in the peripheral blood.

[6] = 5 mg/kg tail vein, 8 to 10 days after the start of drinking DSS, vs control group

Row | Substance | dermis thickness ([1]; 1.5 mg/kg tail vein twice, 4th day (Day 19) after start of administration, HE staining, vs control group) | scaling in the auricle ([1]; 1.5 mg/kg tail vein twice, 4 days after start of peptide administration, vs control group (BSA)) | auricular thickness (edema) ([1]; 1.5 mg/kg tail vein twice, Day 15 to Day 19, vs control group (BSA)) | number of CD45-positive cells in auricular skin sections ([1]; 1.5 mg/kg tail vein twice, Day 19, per high-power field (400×), vs control group) | changes in mouse body weight during the period of the study ([1]; Day 15 to Day 19, between the groups, p>0.05, repeated one-way ANOVA) | dermis thickness ([1]; dose of 0.5 mg/kg, vs control group, data not shown) | number of colonies obtained on the plate by culturing the peripheral blood-derived cells [2] | cerebral infarction volume ratio (mean±standard error) [3] [%] | body weight 10 days after the start of drinking the DSS aqueous solution ([4]; 5 mg/kg tail vein on Days 1, 4, 7, 8 and 9, Day 10) | changes in mouse body weight (degree of decrease) ([4]; 5 mg/kg tail vein on Days 1, 4, 7, 8 and 9 after start of drinking DSS, vs control group (saline)) | DAI (disease activity index) score [4, 6] | stool score (sum of stool condition score and bleeding score) [4, 6] | colon length ([4]; 5 mg/kg tail vein, ten days after the start of drinking DSS, vs control group) | number of colonies obtained by solid-phase culture of peripheral blood [5]
1 | peptide 1r10: artificial sequence peptide consisting of the amino acid sequence of SEQ ID NO: 1, chemically synthesized (IMWLCQYFFQCHKCAVKKKTWKEKKDRRHP) | statistically significant decrease | reduction of scaling | statistically significant reduction | statistically significant decrease | not significantly different | statistically significant decrease | larger | 27.2±1.2 | tendency to recover body weight | slower | lower | lower | longer | 
2 | HMGB1 peptide 1-44: peptide consisting of amino acid residues 1-44 of the human HMGB1 protein, which has an activity of mobilizing mesenchymal stem cells into peripheral blood (MGKGDPKKPRGKMSSYAFFVQTCREEHKKKHPDASVNFSEFSKK; UniProt P09429 1-44, looked up, fragment) |  |  |  |  |  |  |  |  |  |  |  |  |  | larger
